Experimental findings from patent US8198307B2, “Imidazole derivatives having aryl piperidine substituent, method for preparation thereof and pharmaceutical compositions containing same” (Korea Research Institute of Chemical Technology, priority 2007, dated 2012) are described below.

Each structure is given as a SMILES string. Bounds are passed on as bounds.

This test addresses T1, MCH R1 (melanine-concentrating hormone receptor-1) (Homo sapiens, UniProt Q99705).
T1 construct: purchased Euroscreen, Gosselies, Belgium
Nature of the test: Inhibitory effects on MCH R1 binding (Eu-MCH time-resolved fluorescence binding assay). The note with it: concentration inhibiting the binding of MCH (Eu-MCH, 2 nM) to MCH R1 by 50% in vitro; TRF readout; test range 1 nM to 10 μM; read-out: IC50. As to the method: First, MCH R1 (melanine-concentrating hormone receptor-1; Euroscreen, Gosselies, Belgium), 1 μM Europium-labeled melanine-concentrating hormone (Eu-MCH, PerkinElmer, Turku, Finland) and 1 mM melanine-concentrating hormone (MCH, #070-47, Phoenix, Belmont Calif., USA) were kept at 4° C. for ready use. 1 μM Eu-MCH and 1 mM MCH were diluted with an experimental solution (25 mM HEPES pH 7.4, 5 mM MgCl2, 1 mM CaCl2 and 0.5% (w/w) BSA) to 8 nM (final reaction concentration: 2 nM) and 2 μM (final reaction concentration: 0.5 μM), respectively. The compounds prepared in the Examples (“Test compounds”) were dissolved in the experimental solution in concentration of 4 nM to 40 μM (final reaction concentration: 1 nM to 10 μM). MCH R1 (200 assays/vial) was homogeneously dispersed in the experimental solution.
Then, 100 μl/well of the following reaction mixture was added to the wells of a microplate (Multiwell 96 well filter plates PN5020, Pall Co., Ann Arbor, Mich., USA) equipped with a filter paper, with an 8-channel pipette (multi 8-channel, Eppendorf, Hamburg, Germany). Specifically, to the wells of a non-specific binding control group, 25 μl of Eu-MCH, 50 μl of MCH R1 and 25 μl of MCH were added. Further, 25 μl of the experimental solution supplemented with 10% (w/w) of DMSO, 25 μl of Eu-MCH and 50 μl of MCH R1 were added to the wells of a total binding control group, while 25 μl of the test compounds, 25 μl Eu-MCH and 50 μl of MCH R1 were added to the wells of an experimental group. Subsequently, the microplate was shaken gently for 15 seconds and kept at room temperature for 90 minutes to allow the reaction to take place. Then, the plate was washed with a microplate washer (EMBLA, Molecular Devices) by washing three times with 300 μl of a washing solution (25 mM HEPES pH 7.4, 5 mM MgCl2, 1 mM CaCl2) to remove the residual unreacted Eu-MCH. Moisture was removed from the bottom of the wells and 150 μl of dissociation solution (DELFIA Enhancement solution, PerkinElmer, Turku, Finland) was added to each well, followed by keeping the plate at room temperature for 2 to 4 hours. Subsequently, time-resolved fluorescence (TRF) values were measured with a multilabel counter (Victor2, PerkinElmer, Turku, Finland) (emission wave length: 615 nm, excitation wave length: 340 nm). The inhibition rate based on the time-resolved fluorescence data was calculated using the following Equation (I). Inhibition rate of time-resolved fluorescence (%)=[(Average TRF value of the total binding group−Time-resolved fluorescence value of the test compound)/(Average TRF value of the total binding group−Average TRF value of the non-specific binding group)]×100 (I)

T1 sequence (Q99705 whole entry, species assumed): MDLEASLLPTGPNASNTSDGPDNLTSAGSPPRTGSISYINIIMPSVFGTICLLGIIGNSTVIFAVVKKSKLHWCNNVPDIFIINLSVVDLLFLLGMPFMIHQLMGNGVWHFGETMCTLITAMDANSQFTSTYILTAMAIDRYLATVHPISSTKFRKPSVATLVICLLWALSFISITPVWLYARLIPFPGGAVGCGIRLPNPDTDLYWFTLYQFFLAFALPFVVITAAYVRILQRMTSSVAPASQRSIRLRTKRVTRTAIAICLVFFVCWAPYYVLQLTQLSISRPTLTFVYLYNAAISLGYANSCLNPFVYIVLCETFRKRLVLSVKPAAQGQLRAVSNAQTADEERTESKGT

Usually IC50 stands for the point on the concentration scale where inhibition reaches its midpoint. Take `CC(=O)Nc1cccc(C2CCN(CCn3c(-c4ccccc4)nc4ccccc43)CC2)c1` [Example 1, 2-phenyl-1-{2-[4-(3-acetylaminophenyl)piperidin-1-yl]ethyl}-1H-benzimidazole]: the concentration for half-maximal inhibition (IC50) was greater than 10 µM.
As for `CC(=O)Nc1cccc(C2CCN(CCn3c(-c4ccc(Cl)cc4)nc4ccccc43)CC2)c1` [Example 2, 2-(4-chlorophenyl)-1-{2-[4-(3-acetylaminophenyl)piperidin-1-yl]ethyl}-1H-benzimidazole], the figure is 6 µM; as for `CC(=O)Nc1cccc(C2CCN(CCCn3c(-c4ccccc4)nc4ccccc43)CC2)c1` [Example 3, 2-phenyl-1-{3-[4-(3-acetylaminophenyl)piperidin-1-yl]propyl}-1H-benzimidazole], 0.002 µM; as for `CC(=O)Nc1cccc(C2CCN(CCCn3c(-c4ccc(Cl)cc4)nc4ccccc43)CC2)c1` [Example 4, 2-(4-chlorophenyl)-1-{3-[4-(3-acetylaminophenyl)piperidin-1-yl]propyl}-1H-benzimidazole], 0.001 µM.
The value for `CC(=O)Nc1cccc(C2CCN(CCCCn3c(-c4ccccc4)nc4ccccc43)CC2)c1` [Example 5, 2-phenyl-1-{4-[4-(3-acetylaminophenyl)piperidin-1-yl]butyl}-1H-benzimidazole] was 0.029 µM; that for `CC(=O)Nc1cccc(C2CCN(CCCCn3c(-c4ccc(Cl)cc4)nc4ccccc43)CC2)c1` [Example 6, 2-(4-chlorophenyl)-1-{4-[4-(3-acetylaminophenyl)piperidin-1-yl]butyl}-1H-benzimidazole] was 0.001 µM; that for `CC(=O)Nc1cccc(C2CCN(CCCCCn3c(-c4ccccc4)nc4ccccc43)CC2)c1` [Example 7, 2-phenyl-1-{5-[4-(3-acetylaminophenyl)piperidin-1-yl]pentyl}-1H-benzimidazole] was 0.074 µM.
The value for `CC(=O)Nc1cccc(C2CCN(CCCCCn3c(-c4ccc(Cl)cc4)nc4ccccc43)CC2)c1` [Example 8, 2-(4-chlorophenyl)-1-{5-[4-(3-acetylaminophenyl)piperidin-1-yl]pentyl}-1H-benzimidazole] was 0.032 µM.
As to `CC(=O)Nc1cccc(C2CCN(CCCn3c(-c4ccccc4Cl)nc4ccccc43)CC2)c1` [Example 9, 2-(2-chlorophenyl)-1-{3-[4-(3-acetylaminophenyl)piperidin-1-yl]propyl}-1H-benzimidazole], the IC50 was determined as 0.01 µM.
Regarding `CC(=O)Nc1cccc(C2CCN(CCCn3c(-c4cccc(Cl)c4)nc4ccccc43)CC2)c1` [Example 10, 2-(3-chlorophenyl)-1-{3-[4-(3-acetylaminophenyl)piperidin-1-yl]propyl}-1H-benzimidazole], the IC50 stood at 0.005 µM.
As for `CC(=O)Nc1cccc(C2CCN(CCCn3c(-c4ccc(Br)cc4)nc4ccccc43)CC2)c1` [Example 11, 2-(4-bromophenyl)-1-{3-[4-(3-acetylaminophenyl)piperidin-1-yl]propyl}-1H-benzimidazole], the figure is 0.005 µM; as for `CC(=O)Nc1cccc(C2CCN(CCCn3c(-c4ccc(Cl)c(Cl)c4)nc4ccccc43)CC2)c1` [Example 12, 2-(3,4-dichlorophenyl)-1-{3-[4-(3-acetylaminophenyl)piperidin-1-yl]propyl}-1H-benzimidazole], 0.024 µM; as for `CC(=O)Nc1cccc(C2CCN(CCCn3c(-c4cccc(Br)c4)nc4ccccc43)CC2)c1` [Example 13, 2-(3-bromophenyl)-1-{3-[4-(3-acetylaminophenyl)piperidin-1-yl]propyl}-1H-benzimidazole], 0.001 µM.
As for `CC(=O)Nc1cccc(C2CCN(CCCn3c(-c4ccccc4I)nc4ccccc43)CC2)c1` [Example 14, 2-(2-iodophenyl)-1-{3-[4-(3-acetylaminophenyl)piperidin-1-yl]propyl}-1H-benzimidazole], the figure is greater than 10 µM; as for `CC(=O)Nc1cccc(C2CCN(CCCn3c(-c4ccccc4F)nc4ccccc43)CC2)c1` [Example 15, 2-(2-fluorophenyl)-1-{3-[4-(3-acetylaminophenyl)piperidin-1-yl]propyl}-1H-benzimidazole], 0.01 µM; as for `CC(=O)Nc1cccc(C2CCN(CCCn3c(-c4ccc(Cl)cc4Cl)nc4ccccc43)CC2)c1` [Example 16, 2-(2,4-dichlorophenyl)-1-{3-[4-(3-acetylaminophenyl)piperidin-1-yl]propyl}-1H-benzimidazole], 0.003 µM.
As for `COc1ccccc1-c1nc2ccccc2n1CCCN1CCC(c2cccc(NC(C)=O)c2)CC1` [Example 17, 2-(2-methoxyphenyl)-1-{3-[4-(3-acetylaminophenyl)piperidin-1-yl]propyl}-1H-benzimidazole], the figure is 0.747 µM.
Take `COc1cccc(-c2nc3ccccc3n2CCCN2CCC(c3cccc(NC(C)=O)c3)CC2)c1` [Example 18, 2-(3-methoxyphenyl)-1-{3-[4-(3-acetylaminophenyl)piperidin-1-yl]propyl}-1H-benzimidazole]: the IC50 stood at 0.007 µM.
The value for `COc1ccc(-c2nc3ccccc3n2CCCN2CCC(c3cccc(NC(C)=O)c3)CC2)cc1` [Example 19, 2-(4-methoxyphenyl)-1-{3-[4-(3-acetylaminophenyl)piperidin-1-yl]propyl}-1H-benzimidazole] was 0.009 µM; that for `CC(=O)Nc1cccc(C2CCN(CCCn3c(-c4ccc(C(C)C)cc4)nc4ccccc43)CC2)c1` [Example 20, 2-(4-isopropylphenyl)-1-{3-[4-(3-acetylaminophenyl)piperidin-1-yl]propyl}-1H-benzimidazole] was 0.019 µM.
The value for `CC(=O)Nc1cccc(C2CCN(CCCn3c(-c4ccccc4)nc4cc(C)c(C)cc43)CC2)c1` [Example 21, 2-phenyl-1-{3-[4-(3-acetylaminophenyl)piperidin-1-yl]propyl}-5,6-dimethyl-1H-benzimidazole] was 0.005 µM.
The value for `CC(=O)Nc1cccc(C2CCN(CCCn3c(-c4ccc(Cl)cc4)nc4cc(C)c(C)cc43)CC2)c1` [Example 22, 2-(4-chlorophenyl)-1-{3-[4-(3-acetylaminophenyl)piperidin-1-yl]propyl}-5,6-dimethyl-1H-benzimidazole] was 0.2 µM.
For `CC(=O)Nc1cccc(C2CCN(CCCn3c(-c4ccccc4)nc4ccc(C)cc43)CC2)c1` [Example 23, 2-phenyl-1-{3-[4-(3-acetylaminophenyl)piperidin-1-yl]propyl}-6-methyl-1H-benzimidazole], the concentration for half-maximal inhibition (IC50) was determined as 0.016 µM.
In the case of `CC(=O)Nc1cccc(C2CCN(CCCn3c(-c4ccc(Cl)cc4)nc4ccc(C)cc43)CC2)c1` [Example 24, 2-(4-chlorophenyl)-1-{3-[4-(3-acetylaminophenyl)piperidin-1-yl]propyl}-6-methyl-1H-benzimidazole], the IC50 came to 0.01 µM.
As for `CC(=O)Nc1cccc(C2CCN(CCCn3c(-c4ccc(Cl)cc4)nc4ccc(Cl)cc43)CC2)c1` [Example 25, 2-(4-chlorophenyl)-1-{3-[4-(3-acetylaminophenyl)piperidin-1-yl]propyl}-6-chloro-1H-benzimidazole], the IC50 amounted to 0.013 µM.
The value for `CC(=O)Nc1cccc(C2CCN(CCCn3c(-c4ccccc4)nc4ccc(F)cc43)CC2)c1` [Example 26, 2-phenyl-1-{3-[4-(3-acetylaminophenyl)piperidin-1-yl]propyl}-6-fluoro-1H-benzimidazole] was 0.007 µM; that for `COc1ccc2nc(-c3ccccc3)n(CCCN3CCC(c4cccc(NC(C)=O)c4)CC3)c2c1` [Example 27, 2-phenyl-1-{3-[4-(3-acetylaminophenyl)piperidin-1-yl]propyl}-6-methoxy-1H-benzimidazole] was 0.011 µM; that for `COc1ccc2nc(-c3ccc(Cl)cc3)n(CCCN3CCC(c4cccc(NC(C)=O)c4)CC3)c2c1` [Example 28, 2-(4-chlorophenyl)-1-{3-[4-(3-acetylaminophenyl)piperidin-1-yl]propyl}-6-methoxy-1H-benzimidazole] was 0.055 µM.
As for `CC(=O)Nc1cccc(C2CCN(CCCn3c(-c4ccccc4)nc4ccc(Cl)cc43)CC2)c1` [Example 29, 2-phenyl-1-{3-[4-(3-acetylaminophenyl)piperidin-1-yl]propyl}-6-chloro-1H-benzimidazole], the figure is 0.01 µM.
